This test has as its system MV-4-11 cells. The test is described as follows: Gene expression microarray analysis (Affymetrix PrimeView) and GSEA. Format: cell-based, human. Also on record: RFU PODN (11730768_x_at) / Fold change /veh PODN (11730768_x_at) / RFU LINC00158 (11744669_a_at) / Fold change /veh LINC00158 (11744669_a_at) / RFU DUSP10 (11751237_a_at) / Fold change /veh DUSP10 (11751237_a_at) / RFU ID3 (11757404_x_at) / Fold change /veh ID3 (11757404_x_at) / RFU PLEKHG5 (11737974_s_at) / Fold change /veh PLEKHG5 (11737974_s_at) / RFU LRRC4B (11730491_at) / Fold change /veh LRRC4B (11730491_at) / RFU GIMAP4 (11747438_a_at) / Fold change /veh GIMAP4 (11747438_a_at) / RFU KRT8 (11758183_x_at) / Fold change /veh KRT8 (11758183_x_at) / RFU CNN1 (11734310_a_at) / Fold change /veh CNN1 (11734310_a_at) / RFU VPS37D (11726825_at) / Fold change /veh VPS37D (11726825_at) / RFU C10orf10 (11716522_x_at) / Fold change /veh C10orf10 (11716522_x_at) / RFU KIR2DL2 /// KIR2DL4 /// KIR2DL5A /// KIR2DL5B /// KIR2DS1 /// KIR2DS2 /// KIR2DS3 /// KIR2DS4 /// KIR3DL3 /// KIR3DL3 /// KIR3DS1 (11738374_at) / Fold change /veh KIR2DL2 /// KIR2DL4 /// KIR2DL5A /// KIR2DL5B /// KIR2DS1 /// KIR2DS2 /// KIR2DS3 /// KIR2DS4 /// KIR3DL3 /// KIR3DL3 /// KIR3DS1 (11738374_at) / RFU C1QL1 (11718748_at) / Fold change /veh C1QL1 (11718748_at) / RFU TMPRSS4 (11747572_a_at) / Fold change /veh TMPRSS4 (11747572_a_at) / RFU HAMP (11756126_x_at) / Fold change /veh HAMP (11756126_x_at) / RFU RNFT2 (11725882_a_at) / Fold change /veh RNFT2 (11725882_a_at) / RFU NR4A2 (11747474_a_at) / Fold change /veh NR4A2 (11747474_a_at) / RFU ABCC12 (11746883_a_at) / Fold change /veh ABCC12 (11746883_a_at) / RFU TMEM136 (11760407_x_at) / Fold change /veh TMEM136 (11760407_x_at) / RFU CLDN22 /// WWC2 (11732394_at) / Fold change /veh CLDN22 /// WWC2 (11732394_at) / RFU HLA-DPB1 (11760878_x_at) / Fold change /veh HLA-DPB1 (11760878_x_at) / RFU SPINT1 (11716480_a_at) / Fold change /veh SPINT1 (11716480_a_at) / RFU GAP43 (11754022_s_at) / Fold change /veh GAP43 (11754022_s_at) / RFU A4GNT (11735810_at) / Fold change /veh A4GNT (11735810_at) / RFU PRB3 (11715151_x_at) / Fold change /veh PRB3 (11715151_x_at) / RFU TUBB4B (11761932_at) / Fold change /veh TUBB4B (11761932_at) / RFU CAPN14 (11732068_a_at) / Fold change /veh CAPN14 (11732068_a_at) / RFU TMCC2 (11721928_a_at) / Fold change /veh TMCC2 (11721928_a_at) / RFU IRGQ (11745062_a_at) / Fold change /veh IRGQ (11745062_a_at) / RFU FAM174B (11720279_a_at) / Fold change /veh FAM174B (11720279_a_at) / RFU TMPRSS4 (11748680_a_at) / Fold change /veh TMPRSS4 (11748680_a_at) / RFU FAM212B (11763350_a_at) / Fold change /veh FAM212B (11763350_a_at) / RFU PLEKHG5 (11743358_a_at) / Fold change /veh PLEKHG5 (11743358_a_at) / RFU ZSCAN30 (11745921_a_at) / Fold change /veh ZSCAN30 (11745921_a_at) / RFU CMKLR1 (11741424_a_at) / Fold change /veh CMKLR1 (11741424_a_at) / RFU LOC101060620 /// MAPK8IP1 (11723275_at) / Fold change /veh LOC101060620 /// MAPK8IP1 (11723275_at) / RFU SPTSSB (11747773_x_at) / Fold change /veh SPTSSB (11747773_x_at) / RFU PRSS12 (11739890_at) / Fold change /veh PRSS12 (11739890_at) / RFU BIN1 (11741810_x_at) / Fold change /veh BIN1 (11741810_x_at) / RFU WNT11 (11732464_a_at) / Fold change /veh WNT11 (11732464_a_at) / RFU C10orf10 (11716521_a_at) / Fold change /veh C10orf10 (11716521_a_at) / RFU C5orf56 (11738089_at) / Fold change /veh C5orf56 (11738089_at) / RFU CYB561 (11721691_x_at) / Fold change /veh CYB561 (11721691_x_at) / RFU ANKRD19P (11752326_a_at) / Fold change /veh ANKRD19P (11752326_a_at) / RFU OR2T12 /// OR2T33 /// OR2T8 (11738714_s_at) / Fold change /veh OR2T12 /// OR2T33 /// OR2T8 (11738714_s_at) / RFU VCAN (11748164_a_at) / Fold change /veh VCAN (11748164_a_at) / RFU JSRP1 (11732532_at) / Fold change /veh JSRP1 (11732532_at) / RFU KRTAP10-11 (11738290_x_at) / Fold change /veh KRTAP10-11 (11738290_x_at) / RFU MYO3A (11730013_a_at) / Fold change /veh MYO3A (11730013_a_at) / RFU EBF3 (11725865_a_at) / Fold change /veh EBF3 (11725865_a_at) / RFU CAMK2N1 (11719241_x_at) / Fold change /veh CAMK2N1 (11719241_x_at) / RFU C5orf56 (11738088_a_at) / Fold change /veh C5orf56 (11738088_a_at) / RFU OLFML3 (11715873_a_at) / Fold change /veh OLFML3 (11715873_a_at) / RFU LOC100653217 /// NTM (11731650_a_at) / Fold change /veh LOC100653217 /// NTM (11731650_a_at) / RFU MAPK11 (11762145_a_at) / Fold change /veh MAPK11 (11762145_a_at) / RFU FIZ1 (11724087_x_at) / Fold change /veh FIZ1 (11724087_x_at) / RFU OASL (11726364_x_at) / Fold change /veh OASL (11726364_x_at) / RFU SOX15 (11748057_x_at) / Fold change /veh SOX15 (11748057_x_at) / RFU CD79A (11719716_a_at) / Fold change /veh CD79A (11719716_a_at) / RFU HIST1H1D (11736915_at) / Fold change /veh HIST1H1D (11736915_at) / RFU CASKIN2 (11723855_a_at) / Fold change /veh CASKIN2 (11723855_a_at) / RFU LOC730098 (11760151_x_at) / Fold change /veh LOC730098 (11760151_x_at) / RFU OR4N2 (11742367_at) / Fold change /veh OR4N2 (11742367_at) / RFU PRRT2 (11749266_a_at) / Fold change /veh PRRT2 (11749266_a_at) / RFU SNX32 (11753110_a_at) / Fold change /veh SNX32 (11753110_a_at) / RFU CDHR5 (11726645_a_at) / Fold change /veh CDHR5 (11726645_a_at) / RFU RCAN1 (11760418_a_at) / Fold change /veh RCAN1 (11760418_a_at) / RFU FAM167A (11723789_a_at) / Fold change /veh FAM167A (11723789_a_at) / RFU FAM26E (11764081_at) / Fold change /veh FAM26E (11764081_at) / RFU ISYNA1 (11749810_s_at) / Fold change /veh ISYNA1 (11749810_s_at) / RFU ACY1 (11761880_at) / Fold change /veh ACY1 (11761880_at) / RFU 11764098_at / Fold change /veh 11764098_at / RFU SAMD14 (11745864_x_at) / Fold change /veh SAMD14 (11745864_x_at) / RFU NPB (11741838_a_at) / Fold change /veh NPB (11741838_a_at) / RFU TMPRSS6 (11731388_a_at) / Fold change /veh TMPRSS6 (11731388_a_at) / RFU KRTAP10-2 (11738614_at) / Fold change /veh KRTAP10-2 (11738614_at) / RFU ARHGAP8 /// PRR5-ARHGAP8 (11727945_x_at) / Fold change /veh ARHGAP8 /// PRR5-ARHGAP8 (11727945_x_at) / RFU KRTAP5-7 /// NADSYN1 (11734609_at) / Fold change /veh KRTAP5-7 /// NADSYN1 (11734609_at) / RFU RASL12 (11751679_a_at) / Fold change /veh RASL12 (11751679_a_at) / RFU CDKN2B (11736163_a_at) / Fold change /veh CDKN2B (11736163_a_at) / RFU PRF1 (11729649_at) / Fold change /veh PRF1 (11729649_at) / RFU, ZNF638 /// ZNF638-IT1 / Fold change vs veh, ZNF638 /// ZNF638-IT1 / RFU, PANK3 / Fold change vs veh, PANK3 / RFU, SH3YL1 / Fold change vs veh, SH3YL1 / RFU, ZEB2 / Fold change vs veh, ZEB2 / RFU, NRIP1 / Fold change vs veh, NRIP1 / RFU, PTTG1IP / Fold change vs veh, PTTG1IP / RFU, CAPN2 / Fold change vs veh, CAPN2 / RFU, MED14 / Fold change vs veh, MED14 / RFU, SNORA58 / Fold change vs veh, SNORA58 / RFU, C1orf63 / Fold change vs veh, C1orf63 / RFU, LRRFIP1 / Fold change vs veh, LRRFIP1 / RFU, NDUFAF7 / Fold change vs veh, NDUFAF7 / RFU, SLC12A2 / Fold change vs veh, SLC12A2 / RFU, IBTK / Fold change vs veh, IBTK / RFU, ESF1 / Fold change vs veh, ESF1 / Fold change vs veh, TMEM50B / RFU, TAOK1 / Fold change vs veh, TAOK1 / RFU, ACBD3 / Fold change vs veh, ACBD3 / RFU, TMA16 / Fold change vs veh, TMA16 / RFU, RWDD3 / Fold change vs veh, RWDD3 / RFU, BCAT1 / Fold change vs veh, BCAT1 / RFU, EDEM3 / Fold change vs veh, EDEM3 / RFU, TMEM33 / Fold change vs veh, TMEM33 / RFU, WDR75 / Fold change vs veh, WDR75 / RFU, AHCTF1 / Fold change vs veh, AHCTF1 / RFU, TFRC / Fold change vs veh, TFRC / RFU, ZDHHC17 / Fold change vs veh, ZDHHC17 / RFU, NOM1 / Fold change vs veh, NOM1 / RFU, ARL8B / Fold change vs veh, ARL8B / RFU, ZBTB11 / Fold change vs veh, ZBTB11 / RFU, TAMM41 / Fold change vs veh, TAMM41 / RFU, KIAA1704 /// LOC100996395 / Fold change vs veh, KIAA1704 /// LOC100996395 / RFU, ING1 / Fold change vs veh, ING1 / RFU, TRMT61B / Fold change vs veh, TRMT61B / RFU, FUBP3 / Fold change vs veh, FUBP3 / RFU, TP53 / Fold change vs veh, TP53 / RFU, TNKS2 / Fold change vs veh, TNKS2 / RFU, ZFP14 / Fold change vs veh, ZFP14 / RFU, ACTR2 / Fold change vs veh, ACTR2 / RFU, PPP3R1 / Fold change vs veh, PPP3R1 / RFU, PIK3R1 / Fold change vs veh, PIK3R1 / RFU, HNRNPA1 / Fold change vs veh, HNRNPA1 / RFU, RNF170 / Fold change vs veh, RNF170 / RFU, ZNF28 / Fold change vs veh, ZNF28 / RFU, RNGTT / Fold change vs veh, RNGTT / RFU, OGT / Fold change vs veh, OGT / RFU, BRD1 / Fold change vs veh, BRD1 / RFU, MARS / Fold change vs veh, MARS / RFU, ZNF655 / Fold change vs veh, ZNF655 / RFU, FAHD1 / Fold change vs veh, FAHD1 / RFU, BDP1 / Fold change vs veh, BDP1 / RFU, LRRCC1 / Fold change vs veh, LRRCC1 / RFU, ARID1A / Fold change vs veh, ARID1A / RFU, ZNF146 / Fold change vs veh, ZNF146 / RFU, ZNF330 / Fold change vs veh, ZNF330 / RFU, GPN3 / Fold change vs veh, GPN3 / RFU, C9orf123 / Fold change vs veh, C9orf123 / RFU, N4BP2L2 / Fold change vs veh, N4BP2L2 / RFU, ARFIP1 / Fold change vs veh, ARFIP1 / RFU, FAM179B / Fold change vs veh, FAM179B / RFU, BCL10 / Fold change vs veh, BCL10 / RFU, UHRF1BP1L / Fold change vs veh, UHRF1BP1L / RFU, BET1 / Fold change vs veh, BET1 / RFU, CNOT2 / Fold change vs veh, CNOT2 / RFU, ZNF268 / Fold change vs veh, ZNF268 / Fold change vs veh, ZNF507 / RFU, DGCR2 / Fold change vs veh, DGCR2 / RFU, WDSUB1 / Fold change vs veh, WDSUB1 / Fold change vs veh, HSP90B1 /// MIR3652 / RFU, ADSS / Fold change vs veh, ADSS / RFU, GK / Fold change vs veh, GK / RFU, ZNF148 / Fold change vs veh, ZNF148 / RFU, TAF9 / Fold change vs veh, TAF9 / RFU, SLC1A5 / Fold change vs veh, SLC1A5 / RFU, SLMO2 / Fold change vs veh, SLMO2 / RFU, ABCC4 / Fold change vs veh, ABCC4 / RFU, LOC101060439 /// RAP1B / Fold change vs veh, LOC101060439 /// RAP1B / RFU, RFX7 / Fold change vs veh, RFX7 / RFU, GTPBP10 / Fold change vs veh, GTPBP10 / RFU, CNEP1R1 / Fold change vs veh, CNEP1R1 / RFU, BIVM-ERCC5 /// ERCC5 / Fold change vs veh, BIVM-ERCC5 /// ERCC5 / RFU, ILF3 / Fold change vs veh, ILF3 / RFU 11762660_at / Fold change /veh 11762660_at / RFU VCAN (11757783_s_at) / Fold change /veh VCAN (11757783_s_at) / RFU DDX43 (11728927_at) / Fold change /veh DDX43 (11728927_at) / RFU KRT8 (11758188_x_at) / Fold change /veh KRT8 (11758188_x_at) / RFU NKD1 (11759106_at) / Fold change /veh NKD1 (11759106_at) / RFU SRD5A1 (11742802_a_at) / Fold change /veh SRD5A1 (11742802_a_at) / RFU TPSAB1 /// TPSB2 (11721975_s_at) / Fold change /veh TPSAB1 /// TPSB2 (11721975_s_at) / RFU GSTM3 (11746129_a_at) / Fold change /veh GSTM3 (11746129_a_at) / RFU IL23R (11737362_x_at) / Fold change /veh IL23R (11737362_x_at) / RFU TMEM51 (11727254_a_at) / Fold change /veh TMEM51 (11727254_a_at) / RFU PIWIL2 (11732686_x_at) / Fold change /veh PIWIL2 (11732686_x_at) / RFU ORM1 (11744905_x_at) / Fold change /veh ORM1 (11744905_x_at) / RFU CCDC152 (11743942_at) / Fold change /veh CCDC152 (11743942_at) / RFU ECM1 (11717891_a_at) / Fold change /veh ECM1 (11717891_a_at) / RFU IL23R (11748794_a_at) / Fold change /veh IL23R (11748794_a_at) / RFU TNFAIP8L3 (11732012_x_at) / Fold change /veh TNFAIP8L3 (11732012_x_at) / RFU MBOAT4 (11741988_at) / Fold change /veh MBOAT4 (11741988_at) / RFU 11764193_at / Fold change /veh 11764193_at / RFU TMEM53 (11763286_at) / Fold change /veh TMEM53 (11763286_at) / RFU MAGEB2 (11727129_at) / Fold change /veh MAGEB2 (11727129_at) / RFU TMEM200A (11744735_a_at) / Fold change /veh TMEM200A (11744735_a_at) / RFU CCDC152 (11751479_a_at) / Fold change /veh CCDC152 (11751479_a_at) / RFU FAM211A (11726209_a_at) / Fold change /veh FAM211A (11726209_a_at) / RFU RGS16 (11746705_a_at) / Fold change /veh RGS16 (11746705_a_at) / RFU VCAN (11755009_s_at) / Fold change /veh VCAN (11755009_s_at) / RFU RHOB (11743442_s_at) / Fold change /veh RHOB (11743442_s_at) / RFU RGS16 (11720943_a_at) / Fold change /veh RGS16 (11720943_a_at) / RFU RGS16 (11720944_at) / Fold change /veh RGS16 (11720944_at) / RFU, VPS4B / Fold change vs veh, VPS4B / RFU, CREB1 / Fold change vs veh, CREB1 / RFU, DNAJC13 / Fold change vs veh, DNAJC13 / RFU, GNAQ / Fold change vs veh, GNAQ / RFU, CDK5R1 / Fold change vs veh, CDK5R1 / RFU, ZRANB3 / Fold change vs veh, ZRANB3 / RFU, CUL4A / Fold change vs veh, CUL4A / RFU, CCNY / Fold change vs veh, CCNY / RFU, UFL1 / Fold change vs veh, UFL1 / RFU, COG3 / Fold change vs veh, COG3 / RFU, DIAPH2 / Fold change vs veh, DIAPH2 / RFU, SKA2 / Fold change vs veh, SKA2 / RFU, AFF3 / Fold change vs veh, AFF3 / RFU, LMF1 / Fold change vs veh, LMF1 / RFU, IPO11 / Fold change vs veh, IPO11 / RFU, DFFB / Fold change vs veh, DFFB / RFU, FOXP1 / Fold change vs veh, FOXP1 / RFU, CARD8 / Fold change vs veh, CARD8 / RFU, STRN3 / Fold change vs veh, STRN3 / RFU, ADK / Fold change vs veh, ADK / RFU, RASSF2 / Fold change vs veh, RASSF2 / RFU, WIPF1 / Fold change vs veh, WIPF1 / RFU, LARP1B / Fold change vs veh, LARP1B / RFU, RASA1 / Fold change vs veh, RASA1 / RFU, RB1 / Fold change vs veh, RB1 / RFU, PPFIA1 / Fold change vs veh, PPFIA1 / RFU, MAT2A / Fold change vs veh, MAT2A / RFU, CCT5 / Fold change vs veh, CCT5 / RFU, WDR92 / Fold change vs veh, WDR92 / RFU, CUX1 / Fold change vs veh, CUX1 / RFU, TTC7A / Fold change vs veh, TTC7A / RFU, TMEM135 / Fold change vs veh, TMEM135 / RFU, DEPTOR / Fold change vs veh, DEPTOR / RFU, CPM / Fold change vs veh, CPM / RFU, DNAJB6 / Fold change vs veh, DNAJB6 / RFU, CACNA2D3 / Fold change vs veh, CACNA2D3 / RFU, DTX4 / Fold change vs veh, DTX4 / RFU, TFCP2 / Fold change vs veh, TFCP2 / RFU, GMCL1 /// GMCL1P1 / Fold change vs veh, GMCL1 /// GMCL1P1 / RFU, AEBP2 / Fold change vs veh, AEBP2 / RFU, SNHG1 /// SNORD22 /// SNORD25 /// SNORD26 /// SNORD27 /// SNORD28 /// SNORD29 /// SNORD31 / Fold change vs veh, SNHG1 /// SNORD22 /// SNORD25 /// SNORD26 /// SNORD27 /// SNORD28 /// SNORD29 /// SNORD31 / Fold change (Aza/veh), C12orf56 (ProbeSet 11735607_a_at) / Fold change (ACY-1035/veh), C12orf56 (ProbeSet 11735607_a_at) / Fold change (Aza/veh), FGFR1OP (ProbeSet 11751329_s_at) / Fold change (ACY-1035/veh), FGFR1OP (ProbeSet 11751329_s_at) / Fold change (Aza/veh), VPS36 (ProbeSet 11739960_a_at) / Fold change (ACY-1035/veh), VPS36 (ProbeSet 11739960_a_at) / RFU SYPL1 (11715823_x_at) / Fold change /veh SYPL1 (11715823_x_at) / RFU IGFBP7 (11715501_s_at) / Fold change /veh IGFBP7 (11715501_s_at) / RFU REEP3 (11722064_at) / Fold change /veh REEP3 (11722064_at) / RFU IGLL1 (11728026_x_at) / Fold change /veh IGLL1 (11728026_x_at): dose or concentration left out as unconfirmed. Conditions: ProbeSet 11721611_a_at; LIST D.

For the compound `Nc1ncn([C@@H]2O[C@H](CO)[C@@H](O)[C@H]2O)c(=O)n1` [azacitidine], the “RFU, IPO11” value was found to be 64.89 RFU.

For the origin of these results see paper PMC5218480 (PLoS ONE, 2017).
